Assay results published in patent publication US20090215778A1, “Alpha-substituted Arylmethyl Piperazine Pyrazolo [1,5-alpha]Pyrimidine Amide Derivatives” (priority 2007, published 2009).

Assays:
[1] = target: T1, HIV Env six-helix bundle (6HB) structure (Human immunodeficiency virus type 1 group M subtype B, UniProt P04579); assay: Six-helix bundle (6HB) assay; assay type: cell-based, HIV-1 (strain RF)
T1 construct: H9 cells chronically infected with HIV-1 (H9/HIV-1RF); endogenous in cells; host or cells: H9 cells chronically infected with HIV-1 strain RF (Env is made from the virus in the infected cells, not by transfection)
T1 sequence (P04579 32-519): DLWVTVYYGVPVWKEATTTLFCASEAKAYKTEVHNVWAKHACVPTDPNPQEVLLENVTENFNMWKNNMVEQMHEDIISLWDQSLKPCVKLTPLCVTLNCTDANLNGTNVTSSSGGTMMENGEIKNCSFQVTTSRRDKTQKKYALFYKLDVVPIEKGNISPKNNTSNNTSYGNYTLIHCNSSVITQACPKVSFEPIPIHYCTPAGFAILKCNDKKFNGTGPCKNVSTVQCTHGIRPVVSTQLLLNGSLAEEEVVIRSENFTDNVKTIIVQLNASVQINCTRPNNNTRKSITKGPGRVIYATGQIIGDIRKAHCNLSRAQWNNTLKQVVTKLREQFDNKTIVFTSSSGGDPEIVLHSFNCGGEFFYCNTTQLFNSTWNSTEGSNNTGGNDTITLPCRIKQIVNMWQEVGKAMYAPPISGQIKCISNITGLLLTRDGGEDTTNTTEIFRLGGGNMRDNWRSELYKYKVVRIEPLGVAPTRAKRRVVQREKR
T1 sequence (P04579 520-865): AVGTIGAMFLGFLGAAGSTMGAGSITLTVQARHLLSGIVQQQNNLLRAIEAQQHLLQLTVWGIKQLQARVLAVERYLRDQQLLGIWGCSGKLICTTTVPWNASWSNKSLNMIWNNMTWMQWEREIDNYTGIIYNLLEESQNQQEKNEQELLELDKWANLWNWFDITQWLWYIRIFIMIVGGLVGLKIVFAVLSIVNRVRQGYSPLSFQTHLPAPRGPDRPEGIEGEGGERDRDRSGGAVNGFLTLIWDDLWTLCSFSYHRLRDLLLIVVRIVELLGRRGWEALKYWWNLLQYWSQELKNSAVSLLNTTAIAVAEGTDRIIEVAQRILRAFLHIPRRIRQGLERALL
In short: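 Flow cytometry measured binding of a six-helix-bundle-specific polyclonal antibody, detected with PE-labelled secondary at 4 °C for 45 min, on H9/HIV-1 RF chronically infected cells. Compound was given 30 min at 37 °C before 1 μg/mL soluble CD4 induction for 1 h. Inhibition appears as reduced fluorescence.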

HIV-1, NL4-3 strain = assay: Virus infection assay (virus entry and single-cycle infection); assay type: cell-based; settings: Human immunodeficiency virus 1, NL43, TZM-b1, read-out: Nl4
In short: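 Single-cycle entry/infection read-out: β-galactosidase chemiluminescence measured one day after infection. Compounds were present during a 4 h, 37 °C exposure of TZM-b1 reporter cells to NL4-3 virus at MOI 0.01 plus DEAE-dextran (80 μg/mL final), followed by addition of complete medium.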

SMILES	IC50 [1]	IC50 (HIV-1, NL4-3 strain)
C=CCN(C)CC(c1ccccc1)N1CCN(C(=O)c2cnn3c(C(F)(F)F)c(C)c(-c4ccc(OC)cc4)nc23)[C@H](C)C1 (stereo partly drawn) [methanone, [5-(4-methoxyphenyl)-6-methyl-7-(trifluoromethyl)pyrazolo[1,5-α]pyrimidin-3-yl][(2R)-2-methyl-4-[2-(methyl-2-propen-1-ylamino)-1-phenylethyl]-1-piperazinyl]]	< 1000 nM	< 1000 nM
COc1ccc(-c2nc3c(C(=O)N4CCN(C(CO)c5ccc(C(C)=O)s5)C[C@H]4C)cnn3c(C(F)(F)F)c2C)cc1 (stereo partly drawn)	1100 to 10000 nM	< 1000 nM
COc1ccc(-c2nc3c(C(=O)N4CCN([C@@H](C)c5cccc(C#N)c5)C[C@H]4C)cnn3c(C(F)(F)F)c2C)cc1	< 1000 nM	< 1000 nM
COc1ccc(-c2nc3c(C(=O)N4CCN(C(CO)c5cccc(C#N)c5)C[C@H]4C)cnn3c(C(F)(F)F)c2C)cc1 (stereo partly drawn) [benzonitrile, 3-[2-hydroxy-1-[(3R)-4-[[5-(4-methoxyphenyl)-6-methyl-7-(trifluoromethyl)pyrazolo[1,5-α]pyrimidin-3-yl]carbonyl]-3-methyl-1-piperazinyl]ethyl]-]	< 1000 nM	< 1000 nM
COc1ccc(-c2nc3c(C(=O)N4CCN([C@@H](CO)c5ccc(Cl)s5)C[C@H]4C)cnn3c(C(F)(F)F)c2C)cc1 [methanone, [(2R)-4-[(1S)-1-(5-chloro-2-thienyl)-2-hydroxyethyl]-2-methyl-1-piperazinyl][5-(4-methoxyphenyl)-6-methyl-7-(trifluoromethyl)pyrazolo[1,5-α]pyrimidin-3-yl]-]	< 1000 nM	< 1000 nM
COc1ccc(-c2nc3c(C(=O)N4CCN([C@@H](C)c5ccc(C#N)cc5)C[C@H]4C)cnn3c(C(F)(F)F)c2C)cc1 [benzonitrile, 4-[(1S)-1-[(3R)-4-[[5-(4-methoxyphenyl)-6-methyl-7-(trifluoromethyl)pyrazolo[1,5-α]pyrimidin-3-yl]carbonyl]-3-methyl-1-piperazinyl]ethyl]-]	1100 to 10000 nM	< 1000 nM
COc1ccc(-c2nc3c(C(=O)N4CCN(C(CO)c5cccs5)C[C@H]4C)cnn3c(C(F)(F)F)c2C)cc1 (stereo partly drawn) [methanone, [(2R)-4-[2-hydroxy-1-(2-thienyl)ethyl]-2-methyl-1-piperazinyl][5-(4-methoxyphenyl)-6-methyl-7-(trifluoromethyl)pyrazolo[1,5-α]pyrimidin-3-yl]-]	< 1000 nM	< 1000 nM
COc1ccc(-c2nc3c(C(=O)N4CCN(C(CO)c5ccc(C(=O)N(C)C)s5)C[C@H]4C)cnn3c(C(F)(F)F)c2C)cc1 (stereo partly drawn) [2-thiophenecarboxamide, 5-[2-hydroxy-1-[(3R)-4-[[5-(4-methoxyphenyl)-6-methyl-7-(trifluoromethyl)pyrazolo[1,5-α]pyrimidin-3-yl]carbonyl]-3-methyl-1-piperazinyl]ethyl]-N,N-dimethyl-]	> 10100 nM	> 10100 nM
COc1ccc(-c2nc3c(C(=O)N4CCN([C@@H](C)c5ccc(NC(=O)OC(C)(C)C)cc5)C[C@H]4C)cnn3c(C(F)(F)F)c2C)cc1 [carbamic acid, N-[4-[(1S)-1-[(3R)-4-[[5-(4-methoxyphenyl)-6-methyl-7-(trifluoromethyl)pyrazolo[1,5-α]pyrimidin-3-yl]carbonyl]-3-methyl-1-piperazinyl]ethyl]phenyl]-, 1,1-dimethylethyl ester]	> 10100 nM	< 1000 nM
COc1ccc(-c2nc3c(C(=O)N4CCN(C(CO)c5ccccc5C#N)C[C@H]4C)cnn3c(C(F)(F)F)c2C)cc1 (stereo partly drawn) [benzonitrile, 2-[2-hydroxy-1-[(3R)-4-[[5-(4-methoxyphenyl)-6-methyl-7-(trifluoromethyl)pyrazolo[1,5-α]pyrimidin-3-yl]carbonyl]-3-methyl-1-piperazinyl]ethyl]-]	< 1000 nM	< 1000 nM
COc1ccc(-c2nc3c(C(=O)N4CCN([C@H](CO)c5cccnc5OC)C[C@H]4C)cnn3c(C(F)(F)F)c2C)cc1 [methanone, [(2R)-4-[(1S)-2-hydroxy-1-(2-methoxy-3-pyridinyl)ethyl]-2-methyl-1-piperazinyl][5-(4-methoxyphenyl)-6-methyl-7-(trifluoromethyl)pyrazolo[1,5-α]pyrimidin-3-yl]-]	1100 to 10000 nM	1100 to 10000 nM
COc1ccc(-c2nc3c(C(=O)N4CCN([C@@H](C)c5ccc(F)cc5)C[C@H]4C)cnn3c(C(F)(F)F)c2C)cc1 [methanone, [(2R)-4-[(1S)-1-(4-fluorophenyl)ethyl]-2-methyl-1-piperazinyl][5-(4-methoxyphenyl)-6-methyl-7-(trifluoromethyl)pyrazolo[1,5-α]pyrimidin-3-yl]-]	< 1000 nM	< 1000 nM
COc1ccc(-c2nc3c(C(=O)N4CCN([C@@H](C)c5ccc(NC(C)=O)cc5)C[C@H]4C)cnn3c(C(F)(F)F)c2C)cc1 [acetamide, N-[4-[(1S)-1-[(3R)-4-[[5-(4-methoxyphenyl)-6-methyl-7-(trifluoromethyl)pyrazolo[1,5-α]pyrimidin-3-yl]carbonyl]-3-methyl-1-piperazinyl]ethyl]phenyl]-]	> 10100 nM	1100 to 10000 nM
COc1ccc(-c2nc3c(C(=O)N4CCN(C(c5ccccc5)C(C)(C)O)C[C@H]4C)cnn3c(C(F)(F)F)c2C)cc1 (stereo partly drawn) [methanone, [(2R)-4-(2-hydroxy-2-methyl-1-phenylpropyl)-2-methyl-1-piperazinyl][5-(4-methoxyphenyl)-6-methyl-7-(trifluoromethyl)pyrazolo[1,5-α]pyrimidin-3-yl]-]	< 1000 nM	< 1000 nM
COc1ccc(-c2nc3c(C(=O)N4CCN(C(CO)c5cc(C)cs5)C[C@H]4C)cnn3c(C(F)(F)F)c2C)cc1 (stereo partly drawn) [methanone, [(2R)-4-[2-hydroxy-1-(4-methyl-2-thienyl)ethyl]-2-methyl-1-piperazinyl][5-(4-methoxyphenyl)-6-methyl-7-(trifluoromethyl)pyrazolo[1,5-α]pyrimidin-3-yl]-]	< 1000 nM	< 1000 nM
COc1ccc(-c2nc3c(C(=O)N4CCN(C(CO)c5c(F)cccc5OC)C[C@H]4C)cnn3c(C(F)(F)F)c2C)cc1 (stereo partly drawn) [methanone, [(2R)-4-[1-(2-fluoro-6-methoxyphenyl)-2-hydroxyethyl]-2-methyl-1-piperazinyl][5-(4-methoxyphenyl)-6-methyl-7-(trifluoromethyl)pyrazolo[1,5-α]pyrimidin-3-yl]-]	< 1000 nM	< 1000 nM
COc1ccc(-c2nc3c(C(=O)N4CCN(C(CO)c5ccccc5F)C[C@H]4C)cnn3c(C(F)(F)F)c2C)cc1 (stereo partly drawn) [methanone, [(2R)-4-[1-(2-fluorophenyl)-2-hydroxyethyl]-2-methyl-1-piperazinyl][5-(4-methoxyphenyl)-6-methyl-7-(trifluoromethyl)pyrazolo[1,5-α]pyrimidin-3-yl]-]	< 1000 nM	< 1000 nM
COc1ccc(-c2nc3c(C(=O)N4CCN(C(CO)c5ccccc5)CC4)cnn3c(C(F)(F)F)c2C)cc1 (stereo not drawn) [methanone, [4-(2-hydroxy-1-phenylethyl)-1-piperazinyl][5-(4-methoxyphenyl)-6-methyl-7-(trifluoromethyl)pyrazolo[1,5-α]pyrimidin-3-yl]-]	< 1000 nM	< 1000 nM
COc1ccc(-c2nc3c(C(=O)N4CCN([C@@H](CO)c5ccccc5)C[C@H]4C)cnn3c(C(F)(F)F)c2OC)cc1 [methanone, [(2R)-4-[(1R)-2-hydroxy-1-phenylethyl]-2-methyl-1-piperazinyl][6-methoxy-5-(4-methoxyphenyl)-7-(trifluoromethyl)pyrazolo[1,5-α]pyrimidin-3-yl]-]	< 1000 nM	< 1000 nM
COc1ccc(-c2nc3c(C(=O)N4CCN(C(CO)c5ccc(C#N)cc5)C[C@H]4C)cnn3c(C(F)(F)F)c2C)cc1 (stereo partly drawn)	1100 to 10000 nM	1100 to 10000 nM
COc1ccc(-c2nc3c(C(=O)N4CCN(C(CO)c5cccc(N6CCNCC6)c5)C[C@H]4C)cnn3c(C(F)(F)F)c2C)cc1 (stereo partly drawn) [methanone, [(2R)-4-[2-hydroxy-1-[3-(1-piperazinyl)phenyl]ethyl]-2-methyl-1-piperazinyl][5-(4-methoxyphenyl)-6-methyl-7-(trifluoromethyl)pyrazolo[1,5-α]pyrimidin-3-yl]-]	> 10100 nM	> 10100 nM
COc1ccc(-c2nc3c(C(=O)N4CCN(C(CO)c5cccnc5Cl)C[C@H]4C)cnn3c(C(F)(F)F)c2C)cc1 (stereo partly drawn) [methanone, [(2R)-4-[1-(2-chloro-3-pyridinyl)-2-hydroxyethyl]-2-methyl-1-piperazinyl][5-(4-methoxyphenyl)-6-methyl-7-(trifluoromethyl)pyrazolo[1,5-α]pyrimidin-3-yl]-]	< 1000 nM	< 1000 nM
COc1ccc(-c2nc3c(C(=O)N4CCN(C(CO)c5cccc(Br)c5)C[C@H]4C)cnn3c(C(F)(F)F)c2C)cc1 (stereo partly drawn) [methanone, [(2R)-4-[1-(3-bromophenyl)-2-hydroxyethyl]-2-methyl-1-piperazinyl][5-(4-methoxyphenyl)-6-methyl-7-(trifluoromethyl)pyrazolo[1,5-α]pyrimidin-3-yl]-]	< 1000 nM	< 1000 nM
COc1ccc(-c2nc3c(C(=O)N4CCN([C@@H](C)c5cccc(NC(=O)OC(C)(C)C)c5)C[C@H]4C)cnn3c(C(F)(F)F)c2C)cc1 [carbamic acid, N-[3-[(1S)-1-[(3R)-4-[[5-(4-methoxyphenyl)-6-methyl-7-(trifluoromethyl)pyrazolo[1,5-α]pyrimidin-3-yl]carbonyl]-3-methyl-1-piperazinyl]ethyl]phenyl]-, 1,1-dimethylethyl ester]	1100 to 10000 nM	> 10100 nM
